# Experimental data reported in article PMC7673538 (PLoS Biology, 2020).
# Several values for one entry are separate records, joined by “and”; a condition that tells them apart may be missing. Equal values may be shown once. Read-outs that look alike come from different tables or passages of the source.
# Key:
# human SERT = target: T1, human SERT (Homo sapiens, UniProt P31645); assay type: cell-based; details: for SERT, Mean (Figure 8B): Control = 100.00; for SERT, Mean as % (Figure 8B): Control = 100%
# T1 construct: expressed in transfected cells; host or cells: HEK293 (gift of Dr. Hoener, F. Hoffmann-La Roche)
# in vitro [1] = details: human
# human DAT = target: T2, human DAT (Homo sapiens, UniProt Q01959); assay type: cell-based; details: for DAT, Mean (Figure 8B): Control = 100; for DAT, Mean as % (Figure 8B): Control = 100%
# T2 construct: expressed in transfected cells; host or cells: HEK293 (gift of Dr. Hoener, F. Hoffmann-La Roche)
# CV-A24v = experiment: microbe, parasite or virus in culture; assay type: cell-based, coxsackievirus A24v
# CV-B3 [2] = experiment: microbe, parasite or virus in culture; assay type: cell-based, coxsackievirus B3; details: for EC50: Enterovirus B
# in vitro [3] = details: monkey
# CV-B3 [4] = experiment: microbe, parasite or virus in culture; assay type: cell-based, coxsackievirus B3; details: Enterovirus B, CVB3, BGM
# in vitro [5] = details: human; remark: listed apart in the source
# HRV-A2 = experiment: microbe, parasite or virus in culture; assay type: cell-based, human rhinovirus; details: Human rhinovirus sp., HRVA2, HeLa R19, read-out: EC50 HRV-A2
# human NET = target: T3, human NET (Homo sapiens, UniProt P23975); assay type: cell-based; details: for NET, Mean (Figure 8B): Control = 100; for NET, Mean as % (Figure 8B): Control = 100%
# T3 construct: expressed in transfected cells; host or cells: HEK293 (gift of Dr. Hoener, F. Hoffmann-La Roche)
# EV-A71 = experiment: microbe, parasite or virus in culture; assay type: cell-based, enterovirus A71; details: Enterovirus A
# [6] = system: representative EVs and RVs; assay type: cell-based
# PV-1 = experiment: microbe, parasite or virus in culture; assay type: cell-based, poliovirus 1; details: Enterovirus C
# T2 sequence (Q01959 whole entry): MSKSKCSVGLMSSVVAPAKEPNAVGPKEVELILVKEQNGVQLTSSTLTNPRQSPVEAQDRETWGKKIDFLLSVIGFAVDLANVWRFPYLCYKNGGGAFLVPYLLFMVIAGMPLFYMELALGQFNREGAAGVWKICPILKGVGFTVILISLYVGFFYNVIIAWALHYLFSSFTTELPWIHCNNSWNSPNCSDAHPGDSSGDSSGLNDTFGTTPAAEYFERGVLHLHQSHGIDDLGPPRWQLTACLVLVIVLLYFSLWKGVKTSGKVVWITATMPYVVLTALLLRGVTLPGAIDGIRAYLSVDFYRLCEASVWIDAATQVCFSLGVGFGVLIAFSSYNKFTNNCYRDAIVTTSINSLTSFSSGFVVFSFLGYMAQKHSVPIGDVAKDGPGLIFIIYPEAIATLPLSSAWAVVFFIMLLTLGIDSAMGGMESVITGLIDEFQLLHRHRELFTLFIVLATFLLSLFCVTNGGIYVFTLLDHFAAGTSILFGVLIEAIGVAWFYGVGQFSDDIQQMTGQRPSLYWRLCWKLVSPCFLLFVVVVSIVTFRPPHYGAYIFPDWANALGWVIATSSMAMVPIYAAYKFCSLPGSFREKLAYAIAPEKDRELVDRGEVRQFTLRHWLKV
# T3 sequence (P23975 whole entry): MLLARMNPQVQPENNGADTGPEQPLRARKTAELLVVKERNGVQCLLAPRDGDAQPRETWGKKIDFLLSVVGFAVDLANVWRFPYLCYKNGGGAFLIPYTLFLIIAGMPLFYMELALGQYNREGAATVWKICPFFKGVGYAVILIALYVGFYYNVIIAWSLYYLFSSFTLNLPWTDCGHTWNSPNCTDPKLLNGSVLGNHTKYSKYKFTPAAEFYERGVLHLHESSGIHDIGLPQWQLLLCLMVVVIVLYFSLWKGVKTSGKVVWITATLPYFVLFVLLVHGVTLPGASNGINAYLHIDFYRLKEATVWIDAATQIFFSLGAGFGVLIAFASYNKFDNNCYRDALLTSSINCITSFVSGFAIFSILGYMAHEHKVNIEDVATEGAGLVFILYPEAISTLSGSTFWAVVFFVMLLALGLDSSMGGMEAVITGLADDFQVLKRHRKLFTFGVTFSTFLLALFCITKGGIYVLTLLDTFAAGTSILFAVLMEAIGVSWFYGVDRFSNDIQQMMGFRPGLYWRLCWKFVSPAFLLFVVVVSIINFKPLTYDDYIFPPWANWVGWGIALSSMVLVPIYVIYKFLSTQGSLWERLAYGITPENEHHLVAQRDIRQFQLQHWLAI
# T1 sequence (P31645 whole entry): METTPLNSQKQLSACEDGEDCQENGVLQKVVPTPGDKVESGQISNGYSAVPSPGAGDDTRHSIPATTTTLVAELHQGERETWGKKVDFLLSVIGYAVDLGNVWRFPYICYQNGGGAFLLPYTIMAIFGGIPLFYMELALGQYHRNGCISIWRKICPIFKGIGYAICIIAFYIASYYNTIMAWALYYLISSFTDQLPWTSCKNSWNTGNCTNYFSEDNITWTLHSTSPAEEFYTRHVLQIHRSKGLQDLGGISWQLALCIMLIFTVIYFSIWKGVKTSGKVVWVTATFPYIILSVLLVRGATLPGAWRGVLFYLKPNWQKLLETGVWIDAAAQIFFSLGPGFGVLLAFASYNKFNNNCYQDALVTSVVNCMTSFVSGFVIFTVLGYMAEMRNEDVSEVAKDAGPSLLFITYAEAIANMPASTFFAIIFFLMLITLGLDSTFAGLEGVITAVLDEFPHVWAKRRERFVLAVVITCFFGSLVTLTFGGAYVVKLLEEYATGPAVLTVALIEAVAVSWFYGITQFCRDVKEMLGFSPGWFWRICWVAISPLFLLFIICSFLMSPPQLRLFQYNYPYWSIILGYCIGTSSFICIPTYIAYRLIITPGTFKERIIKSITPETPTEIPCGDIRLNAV
compound,measurement,setting,value
"O=C(c1ccco1)N(Cc1ccc(F)cc1)c1ccccc1 [Compound 19b, N-(4-Fluorobenzyl)-N-phenylfuran-2-carboxamide]","SERT, Mean (Figure 8B)",human SERT; 1µM,104.08
same,"SERT, Mean as % (Figure 8B)",human SERT; 1µM,104%
same,"SERT, Mean (Figure 8B)",human SERT; 100µM,84.31
same,"SERT, Mean as % (Figure 8B)",human SERT; 100µM,84%
same,inhibition of SERT-mediated uptake (in words),"human SERT; HEK293 cells expressing human SERT, 1 and 100 μM","neither 12a, 19b, 19d, nor the combined compound 12b inhibited"
same,CC50,in vitro [1]; CC50 Average,> 30 µM
same,CC50,in vitro [1]; CC50 HelaR19 Average,> 100 µM
same,CC50,in vitro [1]; Exp 1 CC50,> 30 µM
same,CC50,in vitro [1]; Exp 1 CC50 HelaR19,> 100 µM
same,CC50,in vitro [1]; Exp2 CC50,> 30 µM
same,CC50,in vitro [1]; Exp 2 CC50 HelaR19,> 100 µM
same,"DAT, Mean (Figure 8B)",human DAT; 1µM,94.861
same,"DAT, Mean as % (Figure 8B)",human DAT; 1µM,95%
same,"DAT, Mean (Figure 8B)",human DAT; 100µM,75.9783
same,"DAT, Mean as % (Figure 8B)",human DAT; 100µM,76%
same,inhibition of DAT function (in words),"human DAT; HEK293 cells expressing human DAT, 1 μM or 100 μM","neither 12a, 19b, 19d, nor the combined compound 12b inhibited"
same,EC50,"CV-A24v; Coxsackievirus, HeLa R19, read-out: EC50 CV-A24v strain 110386",2.53 ± 0.45 µM
same,EC50,"CV-A24v; Coxsackievirus, HeLa R19, read-out: EC50 CV-A24v strain 110389",5.65 ± 0.23 µM
same,EC50,"CV-A24v; Coxsackievirus, HeLa R19, read-out: EC50 CV-A24v strain 110390",4.16 ± 0.17 µM
same,EC50,"CV-A24v; Coxsackievirus, HeLa R19, read-out: EC50 CV-A24v strain 110392",4.35 ± 0.18 µM
same,EC50,"CV-A24v; Coxsackievirus, HeLa R19, read-out: EC50 Exp2",2.98 µM
same,EC50,CV-A24v; read-out: EC50 Exp2,5.42 µM and 4.32 µM and 4.53 µM
same,cross-resistance of 19d-resistant CV-B3 virus pools (in words),CV-B3 [2],cross-resistant
same,increase or decrease of antiviral activity against CV-B3,CV-B3 [2],less than 3 fold
same,EC50,"CV-B3 [2]; CVB3, HeLa R19, read-out: CV-B3 EC50 Average",830 nM
same,EC50,"CV-B3 [2]; CVB3, HeLa R19, read-out: CV-B3 Exp 1 EC50",730 nM
same,EC50,"CV-B3 [2]; CVB3, HeLa R19, read-out: CV-B3 Exp2 EC50",930 nM
same,EC50,"CV-B3 [2]; CVB3, HeLa R19, read-out: EC50 Exp1",220 nM
same,EC50,"CV-B3 [2]; CVB3, HeLa R19, read-out: EC50 HelaR19 Average",680 nM
same,EC50,"CV-B3 [2]; CVB3, HeLa R19, read-out: Exp 1 EC50 HelaR19",460 nM
same,EC50,"CV-B3 [2]; CVB3, HeLa R19, read-out: Exp 2 EC50 HelaR19",890 nM
same,EC50,"CV-B3 [2]; CVB3 / genotype 2c, HeLa R19, read-out: EC50 CV-B3 WT",290 ± 50 nM
same,CC50,in vitro [3]; CC50,> 100 µM
same,CC50,in vitro [3]; CC50 BGM Average,> 100 µM
same,CC50,in vitro [3]; Exp 1 CC50 BGM,> 100 µM
same,CC50,in vitro [3]; Exp 2 CC50 BGM,> 100 µM
same,EC50,CV-B3 [4]; read-out: EC50 BGM Average,140 nM
same,EC50,CV-B3 [4]; read-out: Exp 1 EC50 BGM,180 nM
same,EC50,CV-B3 [4]; read-out: Exp 2 EC50 BGM,90 nM
same,CC50,in vitro [5]; CC50,> 100 µM
same,CC50,in vitro [5]; CC50 Hap1 Average,> 100 µM
same,CC50,in vitro [5]; Exp 1 CC50 Hap1,> 100 µM
same,CC50,in vitro [5]; Exp 2 CC50 Hap1,> 100 µM
same,EC50,HRV-A2,22.2 ± 0.61 µM
same,"NET, Mean (Figure 8B)",human NET; 1µM,124.304
same,"NET, Mean as % (Figure 8B)",human NET; 1µM,124%
same,"NET, Mean (Figure 8B)",human NET; 100µM,113.384
same,"NET, Mean as % (Figure 8B)",human NET; 100µM,113%
same,inhibition of NET function (in words),"human NET; HEK293 cells expressing human NET, 1 μM or 100 μM","neither 12a, 19b, 19d, nor the combined compound 12b inhibited"
same,cytotoxicity (in words),HeLa R19 cells,did not show any cytotoxicity
same,EC50,"EV-A71; EVA71, HeLa R19, read-out: EC50 Average",2020 nM
same,EC50,"EV-A71; EVA71, HeLa R19, read-out: EC50 EV-A71",890 ± 90 nM
same,EC50,"EV-A71; EVA71, HeLa R19, read-out: EC50 EV-A71 strain BrCr",1120 ± 150 nM
same,EC50,"EV-A71; EVA71, HeLa R19, read-out: EC50 EV-A71 strain TW/2728/04",2100 ± 80 nM
same,EC50,"EV-A71; EVA71, HeLa R19, read-out: EC50 EV-A71 strain TW/2945/98",2020 ± 150 nM
same,EC50,"EV-A71; EVA71, HeLa R19, read-out: EC50 EV-A71 strain TW/70811/08",920 ± 170 nM
same,EC50,"EV-A71; EVA71, HeLa R19, read-out: EC50 EV-A71 strain TW/72232/04",3830 ± 250 nM
same,EC50,"EV-A71; EVA71, HeLa R19, read-out: EC50 EV-A71 strain TW/96016/08",1890 ± 20 nM
same,EC50,"EV-A71; EVA71 / genotype 2c, HeLa R19, read-out: EC50 EV-A71 WT",820 ± 120 nM
same,"inhibition of contemporary/clinical isolates of EV-A71, CV-A24v and EV-D68 (in words)",[6],"inhibited all clinical isolates of EV-A71, CV-A24v, and EV-D68 tested"
same,spectrum of antiviral activity (in words),[6],inhibited all representative EVs and RVs
same,EC50,"PV-1; HeLa R19, read-out: EC50 Exp1",8.5 µM
same,EC50,"PV-1; HeLa R19, read-out: EC50 Exp2",9.65 µM
same,EC50,"PV-1; HeLa R19, read-out: EC50 PV-1",9.08 ± 0.54 µM
